Legend:
Type in all cases: cell-based
[1] = system: COL5A1; test: qRT-PCR of collagen V encoding gene COL5A1 in human dermal fibroblasts; settings: 10 ng/ml, with carrier protein; 24 h incubation; relative to EF1α
Procedure: (§1) This test was performed to evaluate the stimulation efficacy of a Dolichos biflorus extract according to example 3 on the expression of collagen V encoding genes in human fibroblasts. As 2 genes are responsible of the production of collagen V, namely the genes COL5A1 and COL5A2, both gene expressions were analysed.
(§2) Human dermal fibroblasts (obtained from plastic surgery) were inoculated in standard DMEM medium of cell culture with 10% FCS (Invitrogen). When cell confluence was arisen, the substances to be tested were introduced in new DMEM without FCS. Fibroblasts were incubated during 24 h with the test substances, then total RNA was extracted using a commercial extraction kit (Nucleospin™ RNA II, Macherey-Nagel™, France). Quantification and quality control of total RNA were performed by measuring […] at 260 and 280 nm. […]
(§3) The reverse transcription step was performed with a reverse transcription (RT) kit (ThermoScript™ RT-PCR System, Invitrogen, France) using 0.1 μg of total RNA in a 20 μl final volume. The quantitative PCRs were performed on 2 μl of the RT mix with specific primers in a 20 μl final volume, according to the manufacturer's informations (LightCycler®480 SYBR Green I Master, Roche, France). […] Results, expressed as percentage RNA compared to the control, are the mean of three independent assays (table 3). […]

[2] = system: COL5A2; test: qRT-PCR of collagen V encoding gene COL5A2 in human dermal fibroblasts; settings: 10 ng/ml, with carrier protein; 24 h incubation; relative to EF1α
Procedure: as §1, §2, §3

[3] = system: collagen I; test: Stimulation of collagen I production (ELISA of released collagen peptides, Bradford cell proteins); settings: dose 20 μg/ml; 72 hours; human dermal fibroblasts
Procedure: The purpose of this assay was the evaluation of the potential of Dolichos biflorus seed extract to increase the level of collagen I. Human dermal fibroblasts (from skin of aesthetic surgery) were cultivated in growth medium (DMEM Invitrogen N° 41965-039 with FCS at 10% (v/v)) for 24 hours at 37° C. […] The amount of cellular proteins was determined on cell homogenate (in a solution of NaOH 0.1 N) by the Bradford's method. The quantity of synthesized type I collagen was determined by measuring the amount of released collagen peptides in cell culture medium by an ELISA method (kit […]° from Osteomedical). They are expressed in % protein referring to the control (=standard medium with cells).

TGF-β1: growth factor, positive reference; strong transcription activator of collagen genes; added with a carrier protein
RNA level of COL5A1 [1]: 567 %/control
RNA level of COL5A2 [2]: 171 %/control

O=C1O[C@H]([C@@H](O)CO)C(O)=C1O [Vitamin C]
Cell proteins [3]: 77.3 % protein against control
Released type I collagen [3]: 118.3 % protein against control
